Laboratory results from paper PMC10586511 (Molecular Pharmacology, 2023).

target: T1, 5-HT1AR (serotonin 1A receptor) (Homo sapiens, UniProt P08908); experiment: G protein nanoBRET; format: cell-based
T1 sequence (P08908 1-422): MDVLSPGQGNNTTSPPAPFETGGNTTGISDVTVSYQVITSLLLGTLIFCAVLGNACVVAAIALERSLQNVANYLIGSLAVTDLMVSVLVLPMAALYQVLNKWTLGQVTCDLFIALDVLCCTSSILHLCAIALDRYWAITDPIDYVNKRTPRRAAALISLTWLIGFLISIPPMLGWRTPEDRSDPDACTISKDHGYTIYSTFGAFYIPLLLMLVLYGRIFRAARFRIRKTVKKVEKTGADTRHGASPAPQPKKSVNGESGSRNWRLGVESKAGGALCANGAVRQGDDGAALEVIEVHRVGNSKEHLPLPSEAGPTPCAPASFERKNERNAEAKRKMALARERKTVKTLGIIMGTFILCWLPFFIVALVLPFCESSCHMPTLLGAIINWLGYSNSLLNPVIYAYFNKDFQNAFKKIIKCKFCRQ

| EC50 | SMILES |
| --- | --- |
| 170 nM | O=c1[nH]c2ccccc2n1CCN1CCN(c2cccc(C(F)(F)F)c2)CC1 [Flibanserin] |
| 537 nM | Cc1cnc(CNCC2(F)CCN(C(=O)c3ccc(F)c(Cl)c3)CC2)nc1 [F-15599] |

| SMILES | EC50 |
| --- | --- |
| COc1cc2c3c(c1OC)-c1ccccc1C[C@H]3N(C)CC2 [Nuciferine] | 16600 nM |
